Assay results: ChEMBL document CHEMBL1201862, “PubChem BioAssay data set” (2004)
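How tested: cells in 96-well plates exposed to compound for 48 hours at five concentrations. At the GI50, growth is halved.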 Activity calls are given as the source filed them. Cut-off read from the data, not from the text of the source: active = GI50 up to about 1.1 µM and inactive = higher.

Experiments:
Test in all cases: NCI anticancer screen, dose series, 48 h
EKVX = system: EKVX
SW-620 = system: SW-620
NCI-H23 = system: NCI-H23
OVCAR-4 = system: OVCAR-4
LOX IMVI = system: LOX IMVI
SK-MEL-2 = system: SK-MEL-2
OVCAR-5 = system: OVCAR-5
A549 = system: A549
SK-OV-3 = system: SK-OV-3
U-251 = system: U-251
HCT-15 = system: HCT-15
SF-268 = system: SF-268
M14 = system: M14
SK-MEL-28 = system: SK-MEL-28
CCRF-CEM = system: CCRF-CEM
RXF 393 = system: RXF 393
COLO 205 = system: COLO 205
HCC 2998 = system: HCC 2998
UO-31 = system: UO-31
MOLT-4 = system: MOLT-4

Row | SMILES | GI50 (EKVX) | GI50 (SW-620) | GI50 (NCI-H23) | GI50 (OVCAR-4) | GI50 (LOX IMVI) | GI50 (SK-MEL-2) | GI50 (OVCAR-5) | GI50 (A549) | GI50 (SK-OV-3) | GI50 (U-251) | GI50 (HCT-15) [µM] | GI50 (SF-268) | GI50 (M14) | GI50 (SK-MEL-28) | GI50 (CCRF-CEM) | GI50 (RXF 393) | GI50 (COLO 205) | GI50 (HCC 2998) | GI50 (UO-31) | GI50 (MOLT-4)
1 | CC(C)CNCCc1ccccn1 | > 100 µM (inactive) | > 100 µM (inactive) | > 100 µM (inactive) | > 100 µM (inactive) | > 100 µM (inactive) | > 100 µM (inactive) | > 100 µM (inactive) | > 100 µM (inactive) | > 100 µM (inactive) | > 100 µM (inactive) | > 100 | > 100 µM (inactive) | > 100 µM (inactive) | > 100 µM (inactive) | > 100 µM (inactive) | > 100 µM (inactive) | > 100 µM (inactive) | > 100 µM (inactive) | > 100 µM (inactive) | 
2 | COC(OC)C1OC(CO)C(n2cc(F)c(=O)[nH]c2=O)C1O (configuration not stated) | > 100 µM (inactive) | > 100 µM (inactive) | > 100 µM (inactive) | > 100 µM (inactive) | > 100 µM (inactive) | > 100 µM (inactive) | > 100 µM (inactive) | > 100 µM (inactive) | > 100 µM (inactive) | > 100 µM (inactive) | > 100 | > 100 µM (inactive) | > 100 µM (inactive) | > 100 µM (inactive) | > 100 µM (inactive) | > 100 µM (inactive) | 10.7 µM (inactive) | > 100 µM (inactive) | > 100 µM (inactive) | > 100 µM (inactive)
3 | COc1nc2ccc(CNc3ccc(C(=O)NC(CCC(=O)O)C(=O)O)cc3)cc2nc1OC (configuration not stated) | > 100 µM (inactive) | 39.6 µM (inactive) | > 100 µM (inactive) | > 100 µM (inactive) | 32.8 µM (inactive) | > 100 µM (inactive) | > 100 µM (inactive) | > 100 µM (inactive) | > 100 µM (inactive) | > 100 µM (inactive) | 53.1 | > 100 µM (inactive) | > 100 µM (inactive) | > 100 µM (inactive) | 23.2 µM (inactive) | > 100 µM (inactive) | > 100 µM (inactive) | > 100 µM (inactive) | > 100 µM (inactive) | 18.8 µM (inactive)
4 | C=C(C(=O)C(=O)Oc1ccc(Cl)cc1)C(=O)c1ccc(C)cc1 | > 100 µM (inactive) | 19.3 µM (inactive) | > 100 µM (inactive) | > 100 µM (inactive) | < 0.01 µM (active) | > 100 µM (inactive) | > 100 µM (inactive) | 78 µM (inactive) | > 100 µM (inactive) | 20.7 µM (inactive) | 38.8 | 46.8 µM (inactive) | 28.3 µM (inactive) | 71.1 µM (inactive) | 22.8 µM (inactive) | 26.4 µM (inactive) | > 100 µM (inactive) | 26.5 µM (inactive) | 40.2 µM (inactive) | 58.3 µM (inactive)
5 | CC(=O)Nc1ccc(OCC(O)CO)cc1 (configuration not stated) | > 100 µM (inactive) | 8.3 µM (inactive) | > 100 µM (inactive) | > 100 µM (inactive) | 25.5 µM (inactive) | > 100 µM (inactive) | > 100 µM (inactive) | > 100 µM (inactive) | > 100 µM (inactive) | 56.5 µM (inactive) | 29.5 | > 100 µM (inactive) | > 100 µM (inactive) | > 100 µM (inactive) | 48.2 µM (inactive) | > 100 µM (inactive) | > 100 µM (inactive) | > 100 µM (inactive) | > 100 µM (inactive) | > 100 µM (inactive)
6 | CC(=O)OCC1OC(n2c(-c3ccc(C)cc3)cc(-c3ccco3)c(C#N)c2=S)C(OC(C)=O)C(OC(C)=O)C1OC(C)=O (configuration not stated) | > 100 µM (inactive) | > 100 µM (inactive) | 48 µM (inactive) | > 100 µM (inactive) | > 100 µM (inactive) | 41.7 µM (inactive) | > 100 µM (inactive) | 69.5 µM (inactive) | 29.9 µM (inactive) | 33.8 µM (inactive) | > 100 | 56.8 µM (inactive) | 83.9 µM (inactive) | > 100 µM (inactive) | > 100 µM (inactive) | 40.6 µM (inactive) | > 100 µM (inactive) | > 100 µM (inactive) | 28.9 µM (inactive) | > 100 µM (inactive)
7 | O=C1OC2(OC2c2ccc(Cl)cc2)c2ccccc21 (configuration not stated) | > 100 µM (inactive) | > 100 µM (inactive) |  | 42.6 µM (inactive) | 17.8 µM (inactive) | > 100 µM (inactive) | > 100 µM (inactive) | > 100 µM (inactive) | > 100 µM (inactive) |  | > 100 | > 100 µM (inactive) | > 100 µM (inactive) | > 100 µM (inactive) | 51.5 µM (inactive) | 62.7 µM (inactive) | > 100 µM (inactive) | > 100 µM (inactive) | > 100 µM (inactive) | > 100 µM (inactive)
8 | Cc1ccc(S(N)(C(=O)Nc2cccc3ccccc23)[N+](=O)[O-])cc1 (configuration not stated) |  | > 100 µM (inactive) | > 100 µM (inactive) | > 100 µM (inactive) | > 100 µM (inactive) | > 100 µM (inactive) | > 100 µM (inactive) |  | > 100 µM (inactive) | > 100 µM (inactive) | > 100 |  | > 100 µM (inactive) | > 100 µM (inactive) | 42.3 µM (inactive) | > 100 µM (inactive) | > 100 µM (inactive) | > 100 µM (inactive) | 35.7 µM (inactive) | 29.5 µM (inactive)
9 | O=C(CCN(CCO)CCO)Nc1ccc2c(c1)C(=O)c1ccc(NC(=O)CCN(CCO)CCO)cc1C2=O | 5.69 µM (inactive) | 6.73 µM (inactive) | 38.7 µM (inactive) | 20 µM (inactive) | 14.2 µM (inactive) | 3.37 µM (inactive) | > 100 µM (inactive) | 44.4 µM (inactive) | 14.9 µM (inactive) | 22.3 µM (inactive) | 6.47 | 12.2 µM (inactive) | 12.4 µM (inactive) | 15.1 µM (inactive) | 6.52 µM (inactive) | 4 µM (inactive) | 10.7 µM (inactive) | 1.51 µM (inactive) | 10.4 µM (inactive) | 13.8 µM (inactive)
10 | NC1(C(=O)O)CCCC1 [CYCLOLEUCINE] | > 578 µM (inactive) | > 625 µM (inactive) | > 625 µM (inactive) | > 625 µM (inactive) | > 625 µM (inactive) | > 625 µM (inactive) | > 625 µM (inactive) | > 625 µM (inactive) | > 625 µM (inactive) | > 625 µM (inactive) | > 625 | > 177 µM (inactive) |  | > 625 µM (inactive) | > 625 µM (inactive) | > 625 µM (inactive) | > 625 µM (inactive) | > 625 µM (inactive) | > 625 µM (inactive) | > 625 µM (inactive)
11 | Nc1n[nH]c2nc3ccccc3nc12 [QUINOXALINE1] | 73.3 µM (inactive) | 86.7 µM (inactive) | > 100 µM (inactive) | > 100 µM (inactive) | 47 µM (inactive) | > 100 µM (inactive) | 38 µM (inactive) | 61.9 µM (inactive) | > 100 µM (inactive) | > 100 µM (inactive) | 75.2 | 66.4 µM (inactive) |  | > 100 µM (inactive) | 34.4 µM (inactive) | 27.9 µM (inactive) | 61.8 µM (inactive) | > 100 µM (inactive) | 39.6 µM (inactive) | 61.1 µM (inactive)
